Data as given in ChEMBL document CHEMBL1154198, “Chemical genetics of Plasmodium falciparum” (Nature, 2010).

Columns and labels:
[1] = test system: Plasmodium falciparum; test: ST_JUDE: Plasmodium falciparum 3D7 EC50 (uM) as measured by SYBR green dye; type: functional, organism-based
[2] = test system: Plasmodium falciparum; test: ST_JUDE: Plasmodium falciparum K1 EC50 (uM) as measured by SYBR green dye; type: functional, organism-based

Row | SMILES | EC50 [1] | EC50 [2]
1 | COc1cc(OC)cc(-c2nnc(NC(=O)c3cccc(S(C)(=O)=O)c3)o2)c1 | > 15 µM | > 15 µM
2 | CCCC(=O)NC(c1cccc([N+](=O)[O-])c1)c1ccc2cccnc2c1O (stereo unspecified) | 2.88 µM | 2.48 µM
3 | CC(Cc1ccccc1)NC1=NS(=O)(=O)c2cc([N+](=O)[O-])ccc21 (stereo unspecified) | 1.58 µM | > 15 µM
4 | CCN(CC)c1cc(C)c2cc(NC(=O)c3ccc(OC)c(OC)c3)ccc2n1 | 2.29 µM | > 15 µM
5 | O=C(N1CCCN(C(=O)C(Cl)(Cl)Cl)CC1)C(Cl)(Cl)Cl | 3.42 µM | 2.23 µM
6 | CCCCCC(O)(c1ccc(F)cc1)C(CN1CCOCC1)c1ccc(Cl)cc1 (stereo unspecified) | 1.83 µM | 0.935 µM
7 | CCN1CCN(c2cc(C)c3cc(NC(=S)NCc4cc(OC)ccc4OC)ccc3n2)CC1 | 3.07 µM | 9.01 µM
8 | Oc1c(C(Nc2ccccn2)c2cccc(OC3CCCC3)c2)ccc2cccnc12 (stereo unspecified) | 3.71 µM | 4.16 µM
9 | COc1ccc(NC(=O)CSc2nc(-c3ccccc3Cl)ns2)c(OC)c1 | 5.43 µM | 4.59 µM
10 | CCOc1ccc(/C=C(/C#N)c2nc3ccccc3[nH]2)cc1OC | 3.39 µM | 4.68 µM
11 | CCCCCCCOC(=O)c1[nH]c2c(c1C)C(=O)CC(c1ccco1)C2 (stereo unspecified) | 2.01 µM | 1.19 µM
12 | CNc1c([N+](=O)[O-])nn(-c2ccc(Cl)cc2)[n+]1[O-] | > 15 µM | 3.76 µM
13 | COc1ccc(CCN2COc3c(cc4c(C)c(C)c(=O)oc4c3C)C2)cc1 | 6.95 µM | 0.802 µM
14 | CO/C(O)=C1\C(C)=NC2=C(C(=O)CC(c3ccccc3OC)C2)C1c1cccs1 (stereo unspecified) | 3.91 µM | 1.72 µM
15 | CCCN(CCC)C(=O)c1ccc2c(Cl)c3c(nc2c1)CCCC3 | > 15 µM | > 15 µM
16 | CSc1ccc(C2CC(=O)NC3=C2C(=O)CC(c2ccccc2Cl)C3)cc1 (stereo unspecified) | 2.21 µM | 1.17 µM
17 | CCN1CCN(CCCNC(=O)c2cc3cc4ccc(Cl)cc4nc3o2)CC1 | 4.54 µM | > 15 µM
18 | Cc1cccc(NC(=O)c2cc3ccccc3cc2O)c1 | 1.15 µM | 0.602 µM
19 | COc1ccc(CCNC(=S)Nc2ccccc2SC)cc1OC | 5.2 µM | 4.3 µM
20 | O=C(NC(NC(=S)Nc1ccc(Cl)cc1)C(Cl)(Cl)Cl)c1ccccc1F (stereo unspecified) | 2.73 µM | 4.07 µM
21 | COc1cc(CNCCc2ccc(Cl)cc2)cc(OC)c1O | 6.89 µM | > 15 µM
22 | Cc1ccccc1-n1c(N)c(C#N)c2nc3ccccc3nc21 | 1.64 µM | 4.25 µM

Row | SMILES | EC50 [1] | EC50 [2]
23 | CC(=O)N(C)C1=C(N2CCOCC2)C(=O)c2ccccc2C1=O | 2.72 µM | 4.78 µM
24 | Cc1[nH]c2c(-c3ccc(Cl)cc3)cnn2c(=O)c1Cc1ccccc1 | 6.84 µM | 6.88 µM
25 | COC(=O)C1=C(C)N=c2s/c(=C\c3ccccc3OC(C)=O)c(=O)n2C1c1ccccc1Cl (stereo unspecified) | > 15 µM | > 15 µM
26 | CCOC(=O)c1ccc(Nc2nc3nonc3nc2O)cc1 | > 15 µM | > 15 µM
27 | COc1ccc2cc3cc(C(=O)Nc4ccccc4N4CCN(C)CC4)sc3nc2c1 | > 15 µM | > 15 µM
28 | CCCSc1nc2sc3c(c2c(=O)n1-c1ccc(C)cc1)CCN(Cc1ccccc1)C3 | 1.31 µM | 1.61 µM
29 | Cc1cccc(CN2C(=O)/C(=C\c3ccc(C(=O)NC4CCCC4)cc3)Sc3ccccc32)c1 | 3.99 µM | 4.69 µM
30 | COc1ccc(-c2nn(C)c3sc(C(=O)Nc4cccc(SC)c4)cc23)cc1OC | > 15 µM | 5.24 µM
31 | CCc1cc2c(=O)c(Oc3ccccc3)c(C(F)(F)F)oc2cc1O | > 15 µM | > 15 µM
32 | Cc1ccccc1OCC(O)Cn1c(=N)n(CCN2CCCCC2)c2ccccc21 (stereo unspecified) | 4.76 µM | 5.4 µM
33 | CN(C)CCNc1c2c(nc3ccccc13)CCC2 | 3.96 µM | > 15 µM
34 | CN(C)c1ccc(N2C(N)=NC(N)=NC2(C)C)cc1 | 0.0728 µM | > 15 µM
35 | O=C1C(Nc2cccc(Br)c2)=C(N2CCCCC2)C(=O)c2ccccc21 | 0.456 µM | 1.15 µM
36 | CCN(CC)CCNc1nc(Nc2ccc(F)cc2)c2cnn(-c3ccccc3)c2n1 | 1.34 µM | 3.02 µM
37 | Oc1c(CN2CCN(c3cccc(C(F)(F)F)c3)CC2)cc(COCc2ccccc2)c2cccnc12 | 2.33 µM | 1.45 µM
38 | O=C(O)c1ccc(CN2C(=O)c3ccccc3C2=O)cc1 | > 15 µM | > 15 µM
39 | Oc1c(C(Nc2ccccn2)c2c(F)cccc2Cl)cc(Cl)c2cccnc12 (stereo unspecified) | > 15 µM | > 15 µM
40 | Cc1cccc(C(=O)ONC(=N)Cc2cccc3ccccc23)c1 | 4.7 µM | 2.63 µM
41 | O=C(CSc1nccn1-c1ccc([N+](=O)[O-])cc1)N1CCc2ccccc21 | > 15 µM | > 15 µM
42 | Cc1cc(N2CCC(N(C)C3CCCC3)CC2)nc2cc(O)ccc12 | 1.54 µM | > 15 µM
43 | Oc1c(C(c2ccc(Cl)cc2)N2CCOCC2)ccc2cccnc12 (stereo unspecified) | 2.19 µM | 2.97 µM
44 | CCOC(=O)C(C)Oc1cccc2c(=O)n(CC(=O)Nc3ccccc3C(F)(F)F)ccc12 (stereo unspecified) | > 15 µM | > 15 µM

Row | SMILES | EC50 [1] | EC50 [2]
45 | O=C1C(Sc2nc[nH]n2)=C/C(=N/S(=O)(=O)c2ccc(F)cc2)c2ccccc21 | > 15 µM | 11.9 µM
46 | CC(=O)c1cccc(CN2CCN(CC(C)C)C(CCO)C2)c1 (stereo unspecified) | > 15 µM | > 15 µM
47 | S=C(N/N=C(/c1ccccc1)c1ccccn1)Nc1ccccc1 | 0.317 µM | 0.48 µM
48 | O=C(C1CCCO1)N1N=C(c2c(O)nc3ccc(Cl)cc3c2-c2ccccc2)CC1c1ccco1 (stereo unspecified) | > 15 µM | > 15 µM
49 | COC(=O)CNC(c1ccccc1)c1cc(Br)ccc1NC(=O)c1ccc(OC)cc1 (stereo unspecified) | 4.22 µM | 4.33 µM
50 | COc1ccc(CCN2C(=O)c3[nH]nc(-c4ccccc4O)c3C2c2ccc(F)cc2)cc1 (stereo unspecified) | > 15 µM | > 15 µM
51 | COc1ccc(OC)c(NC(=O)C2c3ccccc3C(=O)N(C)C2c2cccs2)c1 (stereo unspecified) | > 15 µM | 4.28 µM
52 | COc1ccc(C2N(C)c3ccccc3N2C)cc1 | > 15 µM | > 15 µM
53 | CC1(C)CC(=O)C2=C(C1)OC(N)=C(C#N)C2c1ccc(F)cc1F (stereo unspecified) | > 15 µM | > 15 µM
54 | CC(C)OCCNC(=O)CC1C(=O)NCCN1Cc1cccc(C(F)(F)F)c1 (stereo unspecified) | > 15 µM | > 15 µM
55 | O=C(Nc1c2c(nn1-c1ccc([N+](=O)[O-])cc1)CSC2)c1ccc(C(=O)c2ccccc2)cc1 | > 15 µM | 4.08 µM
56 | O=[N+]([O-])c1cc(C(F)(F)F)ccc1NCCCNS(=O)(=O)c1ccc(Cl)cc1 | > 15 µM | > 15 µM
57 | N#C/C(=C/c1ccc(O)c([N+](=O)[O-])c1)c1nc(-c2ccc(Cl)cc2)cs1 | > 15 µM | > 15 µM
58 | Oc1ccc(Cl)cc1CN1CCN(Cc2ccccc2)CC1 | 1.02 µM | 0.486 µM
59 | COc1ccc(CCNC(=S)Nc2ccccc2Cl)cc1OC | 1.29 µM | 1.36 µM
60 | COc1ccc(N2CCN(C(CNC(=O)CC(C)(C)C)c3ccc4c(c3)OCO4)CC2)cc1 (stereo unspecified) | 4.28 µM | 2.01 µM
61 | O=C(Nc1cccc(F)c1)c1cc2ccccc2oc1=O | > 15 µM | > 15 µM
62 | O=C(CCNc1ccc(Oc2ccccc2)cc1)c1ccco1 | > 15 µM | > 15 µM
63 | O=[N+]([O-])c1ccc(S(=O)(=O)N2CCN(C3CCC(c4ccccc4)CC3)CC2)cc1 (stereo unspecified) | > 15 µM | > 15 µM
64 | Cc1ccc(OCCCOc2cccc3ccc(C)nc23)c([N+](=O)[O-])c1 | > 15 µM | > 15 µM
65 | CCCc1cc(O)nc(-n2nc(C)cc2NC(=O)c2ccc(C(C)(C)C)cc2)n1 | > 15 µM | 8.64 µM
66 | Cc1nc2sc(C(c3ccc(Cl)cc3)N3CCC4(CC3)OCCO4)c(O)n2n1 (stereo unspecified) | > 15 µM | > 15 µM

Row | SMILES | EC50 [1] | EC50 [2]
67 | CCOc1ccc(-c2nonc2NC(=O)c2ccccc2C)cc1OCC | > 15 µM | 1.38 µM
68 | COc1ccc(Nc2nc(NCc3ccccc3)c3ccccc3n2)cc1 | 1.31 µM | 7.39 µM
69 | Cc1ccc(NC(=O)c2ccc(Br)o2)c(Br)c1 | > 15 µM | > 15 µM
70 | CCC(=O)NC(c1ccccc1Cl)c1ccc2cccnc2c1O (stereo unspecified) | 2.19 µM | 2.91 µM
71 | O=C1CC(c2ccc(O)cc2)C2=C(CC(c3ccccc3Cl)CC2=O)N1 (stereo unspecified) | 2.43 µM | 1.41 µM
72 | Cc1ccccc1NC(=O)C1c2ccccc2C(=O)N(C2CCCC2)C1c1cccs1 (stereo unspecified) | 2.82 µM | 4.34 µM
73 | CCC(=O)NC(c1ccc(OC)c(OC)c1)c1ccc2cccnc2c1O (stereo unspecified) | 3.8 µM | 4.78 µM
74 | Cc1ccc2ccc(C(Nc3ccccn3)c3ccccc3Br)c(O)c2n1 (stereo unspecified) | 1.49 µM | 1.32 µM
75 | CCCCC(O)(c1ccc(CC)cc1)C(CN1CCOCC1)c1ccccc1 (stereo unspecified) | 3.9 µM | 3.44 µM
76 | C[n+]1ccccc1/C=C/c1ccc(Br)cc1 | 1.4 µM | 1.46 µM
77 | CCOC(=O)c1cnc2ccc(OC)cc2c1Nc1ccc(N2CCN(C)CC2)cc1 | 0.575 µM | 1.29 µM
78 | CCc1ccccc1NC(=O)c1csc2c1CCC(C)C2 (stereo unspecified) | > 15 µM | > 15 µM
79 | COc1ccccc1C(=O)N(Cc1cccnc1)c1nc2c(F)cccc2s1 | > 15 µM | 9.07 µM
80 | CCOc1cc(Br)c(C2NC(=O)NC(c3ccccc3)=C2C(C)=O)cc1OCC (stereo unspecified) | 1.51 µM | > 15 µM
81 | Cc1ccc2ccc(C(Nc3ccccn3)c3ccncc3)c(O)c2n1 (stereo unspecified) | 6.5 µM | > 15 µM
82 | CC(C)CCNCC(O)Cn1c2ccc(Br)cc2c2cc(Br)ccc21 (stereo unspecified) | 0.492 µM | 0.149 µM
83 | CCOc1ccc(/C=C2\Oc3c(ccc(O)c3CN(CC)CC)C2=O)cc1 | > 15 µM | 5.17 µM
84 | Cc1ccc(-c2cc(-c3cc(Cl)ccc3O)[nH]n2)cc1 | 5.01 µM | 2.92 µM
85 | CCc1nnc(NC(=O)CCCOc2ccc(Cl)cc2)s1 | > 15 µM | > 15 µM
86 | CCOC(=O)C(C)Sc1nc2ccccc2c(=O)n1CC1CCCCC1 (stereo unspecified) | > 15 µM | > 15 µM
87 | CCCCc1ccc2nc(C)c(CN(C)C3CCN(C)CC3)c(O)c2c1 | > 15 µM | > 15 µM
88 | Cc1ccc2nc(Nc3nc(O)c4ccccc4n3)nc(C)c2c1 | 6.29 µM | 4.56 µM
